Assay results reported in patent publication US8519136B2, “Aminopyridine derivatives having aurora a selective inhibitory action” (MSD K.K., priority 2008, dated 2013).
Structures can show the parent of a compound that is named as a salt.

Tests used:
[1] = biological target: T1, His-tagged human Aurora A (Homo sapiens, UniProt O14965); test: Aurora A inhibitory activity (IMAP fluorescence polarization); assay type: biochemical; settings: 20 μM ATP, 30° C., 120 minutes
T1 construct: His (N); made in house; host or cells: Escherichia coli BL21-CodonPlus(DE3)-RIL
T1 sequence (O14965 1-403): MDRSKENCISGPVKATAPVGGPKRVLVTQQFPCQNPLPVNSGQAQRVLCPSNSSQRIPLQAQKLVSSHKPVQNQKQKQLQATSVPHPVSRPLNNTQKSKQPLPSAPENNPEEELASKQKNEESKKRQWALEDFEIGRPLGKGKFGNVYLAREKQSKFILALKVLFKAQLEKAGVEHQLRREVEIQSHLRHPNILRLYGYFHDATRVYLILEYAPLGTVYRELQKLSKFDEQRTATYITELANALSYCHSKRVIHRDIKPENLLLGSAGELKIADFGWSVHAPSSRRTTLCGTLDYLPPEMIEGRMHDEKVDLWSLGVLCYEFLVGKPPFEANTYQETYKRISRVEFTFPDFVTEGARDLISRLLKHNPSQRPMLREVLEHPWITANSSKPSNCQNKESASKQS
Excerpt: cDNA of N-terminal His-tagged human Aurora A was integrated into an expression vector, which was then highly expressed in Escherichia coli BL21-CodonPlus(DE3)-RIL cells. The Escherichia coli was harvested and lysed, and then the His-tagged human Aurora A protein was applied onto a nickel chelate column and eluted from the column with imidazole. The active fractions were desalted with a desalting column to give a purified enzyme.
For measurement of the activity of Aurora A, the substrate used was a synthetic peptide (5-FAM (5-carboxyfluorescein)-γ-aminobutyric acid-Ala-Leu-Arg-Arg-Ala-Ser-Leu-Gly-NH2) (SEQ.ID.NO.: 1), which was purchased from Toray Research Center, Inc.
For the phosphorylation reaction, the method by Upstate, Inc. [Kinase Profiler™ Assay Protocols] was referred to, and phosphorylation of the substrate was detected using IMAP® technology (Molecular Devices, Co. Ltd.) (Gaudet E W. et. al, J. Biomol. Screen, 8, 164-175 (2003)). Concretely, the phosphorylation reaction and the detection were carried out as follows:
The phosphorylation reaction was conducted using 384 well plate, and the reaction volume was 10 μl/well. The reaction buffer is comprised of 50 mM Tris-chloride buffer (pH 7.4), 15 mM magnesium acetate, and 0.2 mM ethylenediamine-N,N,N′,N′-tetraacetic acid (EDTA). Thereto, the purified Aurora A protein, 100 nM of the peptide substrate, and 20 μM of adenosine 5′-triphosphate (ATP) were added, and then the reaction was carried out at 30° C. for 120 minutes.
Thereafter, in order to terminate and detect the reaction, 30 μl of the IMAP (registered trademark) binding reagent (IMAP Progressive Binding Reagent, R7284) that had been diluted (1:400) in the 1×IMAP binding buffer A (IMAP Progressive Binding Buffer A, 5× stock, R7282) was added to each well. The solution stood still for 60 minutes in the dark, and then fluorescence polarization was measured using a high-end microplate reader (excitation wavelength: 485 nm; emission wavelength: 520 nm).
The compound to be tested was added to the reaction system such that a dilution series of the compound in dimethylsulfoxide (DMSO) was prepared, and then 0.5 μL of this solution was added for the testing to each well. Each control well was provided by adding 0.5 μL of DMSO to the well in place of the DMSO solution containing the compound to be tested.

[2] = system: Human cervical cancer cells (HeLa S3); test: Cell growth inhibitory effect, WST-8 method; assay type: cell-based; settings: 72 h, HeLa S3, three days incubation, read-out: Cell growth inhibitory effect (HeLaS3) (IC50)
Experimental: Fetal calf serum (FCS) was purchased from Moregate Biotech, and DMEM medium was purchased from Invitrogen Corp. WST-8 was purchased from Kishida Chemical Co., Ltd.
(§1) Human cervical cancer cells (HeLa S3) were obtained from the American Type Culture Collection (ATCC).
Cells were suspended in a DMEM medium containing 10% FCS, and the cell suspension was dispensed to a 96-well plastic plate at a rate of 750 cells/100 microliters per well. The plate was incubated overnight in 5% CO2-95% air at 37° C. A drug was subjected to graded dilution in dimethylsulfoxide and further diluted with a DMEM medium containing 10% FCS. Then, the dilution was dispensed to the plate on which cells had been disseminated, at a rate of 100 microliters per well. The plate was incubated for further three days in 5% CO2-95% air at 37° C. Cell growth after incubation was measured by the WST-8 method (H. Tominaga, et al., Anal. Commun., 36, 47-50 (1999)). Here, the WST-8 method refers to a method in which 20 microliters of a WST-8 reagent solution is added to each well, incubation is conducted at 37° C. for 60 minutes, the plate is stirred, and the amount of formazan produced is measured by a colorimetric method to determine the inhibitory rate of the drug. The concentration for 50% growth inhibition (IC50, μM) of the compound was determined.

[3] = system: Human cervical cancer cells (HeLa S3); test: Effect by combined use of drugs in cells (with docetaxel), WST-8 method; assay type: cell-based; settings: HeLa S3, three days; for inhibition at 0.3 µM: compound 300 nM alone
Experimental: Fetal calf serum (FCS) was purchased from Moregate Biotech, DMEM medium from Invitrogen Corp., docetaxel (tradename: Taxere) from Sigma-Aldrich, Inc., and WST-8 from Kishida Chemical Co., Ltd.
as §1
Cells were suspended in a DMEM medium containing 10% FCS, and the cell suspension was dispensed to two 96-well plastic plates at a rate of 750 cells/100 microliters per well. The plates were incubated overnight in 5% CO2-95% air at 37° C. A drug was subjected to graded dilution in dimethylsulfoxide and further diluted with DMSO or with a DMEM medium containing 10% FCS and also containing 0.6 nM docetaxel. Then, the dilutions were each dispensed to one of the plates on which cells had been disseminated, at a rate of 100 microliters per well. The final concentration of docetaxel at this stage was 0.3 nM. Also, the concentrations in the case of sole administration of the compound according to the invention were 0.003, 0.01, 0.03, 0.1, 0.3, 1, 3 and 10 μM. The plates were incubated for further three days in 5% CO2-95% air at 37° C. Cell growth after incubation was measured by the WST-8 method (H. Tominaga, et al., Anal. Commun., 36, 47-50 (1999)). Here, the WST-8 method refers to a method in which 20 microliters of a WST-8 reagent solution is added to each well, incubation is conducted at 37° C. for 60 minutes, the plate is stirred, and the amount of formazan produced is measured by a colorimetric method to determine the inhibitory rate of the drug. The growth inhibitory effects of docetaxel and of the compound according to the invention were determined, with the value obtained in sole treatment of DMSO being defined as 0%.

[4] = Homo sapiens, HeLa S3, 72 h, read-out: Cell growth inhibitory effect by sole administration of the compound of Example (%)
[5] = compound 300 nM + docetaxel 0.3 nM

| Structure (SMILES) | IC50 [1] [nM] | IC50 [2] [nM] | inhibition at 0.3 µM [3, 4] [%] | Cell growth inhibitory effect by combined administration of docetaxel and the compound of Example (%) [3, 5] [%] | inhibition at 0.1 µM ([3]; Homo sapiens, HeLa S3, 72 h, compound 100 nM alone, read-out: Cell growth inhibitory effect by sole administration of the compound of Example (%)) [%] | Cell growth inhibitory effect by combined administration of docetaxel and the compound of Example (%) ([3]; compound 100 nM + docetaxel 0.3 nM) |
| --- | --- | --- | --- | --- | --- | --- |
| Cl.O=C(c1cccc(Cl)c1F)N1CCC(O)(Cc2cccc(Nc3cc[nH]n3)n2)CC1 [Example 2, 1-(3-chloro-2-fluorobenzoyl)-4-((6-(1H-pyrazol-3-ylamino)pyridin-2-yl)methyl)piperidin-4-ol hydrochloride] | 0.91 | 780 | 23.9 | 90.2 |  |  |
| O=c1[nH]nc(C2(Cc3cccc(Nc4cc[nH]n4)n3)CCN(S(=O)(=O)c3ccccc3C(F)(F)F)CC2)o1 [Example 14, 5-(4-((6-(1H-pyrazol-3-ylamino)pyridin-2-yl)methyl)-1-((2-(trifluoromethyl)phenyl)sulfonyl)piperidin-4-yl)-1,3,4-oxadiazol-2(3H)-one trifluoroacetate] | 0.4 | 1730 | 3.3 | 80.7 |  |  |
| O=c1[nH]nc(C2(Cc3cccc(Nc4cc[nH]n4)n3)CCN(C(c3cccc(C(F)(F)F)c3)C(F)(F)F)CC2)o1 (stereo not drawn) [Example 19, 5-(4-((6-(1H-pyrazol-3-ylamino)pyridin-2-yl)methyl)-1-(2,2,2-trifluoro-1-(3-(trifluoromethyl)phenyl)ethyl)piperidin-4-yl)-1,3,4-oxadiazol-2(3H)-one trifluoroacetate] | 1.27 | 1010 |  |  | 7.6 | 86.0 |
